The source of these data is US12054509B2, “Antimicrobial compounds, compositions, and uses thereof” (Lakewood Amedex, Inc., priority 2017, dated 2024).

Data set [1] can be described thus: pH of 20 mg/mL (2%) aqueous solution. Type of data set: physicochemical. As to conditions: 20 mg/mL in DI water. Here is the method: pH studies are conducted to show the pH of Nu-8 compared to Bisphosphocin® compounds Nu-2, Nu-4, and Nu-5. 20 mg/mL Nu-2 solution is prepared by diluting 2 mL of 250 mg/mL Nu-2 solution with 23 mL DI water. 20 mg/mL Nu-4 and Nu-5 solutions are prepared in the same way. 401.65 mg Nu-8 is weighed in a 5 mL volumetric flask and diluted with DI water to volume. 20 mg/mL Nu-8 solution is prepared by diluting 5 mL of 80.3 mg/mL Nu-8 solution with 15 mL DI water. The pH values of 4 Nu-2, Nu-4, Nu-5, and Nu-8 at 20 mg/mL are measured with a calibrated pH meter. Also shown in TABLE 2 is a summary of other physical properties of the compound of Formula (I) and reference compounds Nu-2, Nu-4, and Nu-5.

Data set [2] can be described thus: Pow (partition coefficient). Type of data set: physicochemical.
A further data set concerns E. coli ATCC 25922. The data set can be described thus: Bacterial cytological profiling (Example 6), E. coli.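 On cell wall deformations: tested at 1 0.5 and 0.25 times MIC.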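 On effect on cell envelope: tested at 1 0.5 and 0.25 times MIC.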 Format: cell-based. The following applies: for effect on cell envelope: BCP; for cell membrane permeability: buffered pH 4 or unbuffered LB; for DNA condensation: higher treatment concentrations, buffered pH 4; for cell wall deformations: unbuffered LB. Here is the method:
(§1) This bacterial cytological profiling (BCP) study uses methods and materials described previously by Nonejuie, P., Burkart, M., Poglianoa, K., Pogiano, J. (2013). Bacterial cytological profiling rapidly identifies the cellular pathways targeted by antibacterial molecules. Proc. Natl. Acad. Sci. U.S.A. 110(40):16169-16174. doi: 10.1073/pnas.1311066110.
(§2) Wild type strains of E. coli ATCC 25922 or P. aeruginosa K2732 are grown in rich media (unbuffered 2× Lysogeny broth [LB]) at 30 C to an OD600˜0.4. These cultures are then split and each sample treated with the appropriate concentration of Nu-8 in unbuffered or buffered LB (final mixture OD600˜0.1). Cells exposed without Nu-8 are buffered to pH 4 with phosphoric acid.
(§3) The BCP is performed in LB media buffered to pH 4. The minimum inhibitory concentration (MIC) is measured for Nu-3, Nu-4, Nu-5, and Nu-8 against each bacterial strain. As one of ordinary skill in the art understands, minimum inhibitory concentrations are the lowest concentration of an antimicrobial that will inhibit the visible growth of a microorganism after overnight incubation. […] Cellular viability is assayed at three time points (5 minutes and 4 and 24 h following the onset of treatment).
(§4) For imaging E. coli, treated cells are stained with 1 μg/Ml FM4-64, 2 μg/mL DAPI, and 0.5 μM SYTOXGreen (Molecular Probes/Invitrogen). P. aeruginosa samples are stained 0.5 μM SYTOX Green, 28 μg/mL DAPI, and 4.5 μg/mL FM 4-64. Cells are transferred to an agarose pad (20% LB, 1% agarose) for imaging as described in Pogliano, J., Osborne, N., Sharp, M. D., Abanes-De Mello, A., Perez, A., Sun, Y.-L. and Pogliano, K. (1999), A vital stain for studying membrane dynamics in bacteria: a novel mechanism controlling septation during Bacillus subtilis sporulation. Molecular Microbiology, 31: 1149-1159. doi:10.1046/j.1365-2958.1999.01255.x.

The next data set deals with P. aeruginosa K2732. In words: Bacterial cytological profiling (Example 6), P. aeruginosa.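 On effect on cell envelope: tested at 1 0.5 and 0.25 times MIC.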 Type of data set: cell-based. The following applies: for effect on cell envelope: BCP; for cell membrane permeability: buffered pH 4 or unbuffered LB. The method, then:
as §1, §2, §3, §4

Regarding `CCCCOP(=O)(O)OCCOCCOP(=O)(O)OCCCC` [Nu-5], in data set [1], the “pH (2% solution)” value stood at 0.93. The compound also displayed a Pow in data set [2] of 0.0480. In the data set with E. coli ATCC 25922, the “effect on cell envelope” value was “affect the cell envelope”, the cell membrane permeability entry is “increase cell membrane permeability”, the DNA condensation entry was “causes DNA condensation” and the cell wall deformations result is “cause cell wall deformations”. For the same compound, in the data set on P. aeruginosa K2732, the “effect on cell envelope” value was “affect the cell envelope” and the cell membrane permeability entry was “increase cell membrane permeability”.
For `COC1[C@@H](OP(=O)(O)OCCCCO)[C@@H](COP(=O)(O)OCCCCO)O[C@H]1n1ccc(=O)[nH]c1=O` (stereo partly drawn) [Nu-2], in data set [1], the “pH (2% solution)” value is 0.99. The same compound returned a Pow in data set [2] of 0.0407.
In the case of `CCCCOP(=O)(O)OC[C@H]1O[C@@H](n2cc(C)c(=O)[nH]c2=O)C[C@H]1OP(=O)(O)OCCCC` [Nu-4], the “pH (2% solution)” value in data set [1] turned out to be 0.94. In data set [2], this compound returned a Pow of 0.0592. In addition, in the data set on E. coli ATCC 25922, the “effect on cell envelope” value is “affect the cell envelope”, the cell membrane permeability entry is “increase cell membrane permeability”, the DNA condensation result is “causes DNA condensation” and the cell wall deformations result was “cause cell wall deformations”. In addition, in the data set on P. aeruginosa K2732, the “effect on cell envelope” value was “affect the cell envelope” and the cell membrane permeability result is “increase cell membrane permeability”.
